Test results reported in US6624188B1, “Method of treatment with compounds having retinoid-like activity and reduced skin toxicity and lacking teratogenic effects” (Allergan, Inc., priority 1992, dated 2003).
≈ marks a conversion by molar mass, not a printed value.

Key:
[1] = system: limb bud mesenchymal cells; test: inhibition of chondrogenesis in high-density spot cultures of limb bud mesenchymal cells; assay type: cell-based; details: Mus musculus; limb bud mesenchymal cell spot cultures, terminated 96 hours after plating; read-out: IC50 (concentration which inhibited chondrogenesis by 50%)
Text: In an in vitro bioassay which measures inhibition of chondrogenesis (bone formation) in […] as a classic measure of teratogenecity the results shown in Table 2 were obtained. The assay is described as follows:
High-density “spot” cultures of limb bud mesenchymal cells were used to compare the ability of various concentrations of test drugs to suppress chondrogenic differentiation as a bioassay. Forelimb buds of mouse embryos on day 12 of gestation (54±2 somites) were dissociated in a trypsin-EDTA solution, and the resultant single-cell suspension was plated as 20-μl spots (200,000 cells/spot) on plastic culture dishes. Retinoid concentrations ranging from 0.3 ng/ml to 3 μg/ml (1 nM-10 μM) were added to the culture medium (Eagle's MEM+10% fetal bovine serum, GIBCO) 24 hours after initial plating. […]
The cultures were terminated 96 hours after plating, at which time the medium was removed and the cells were fixed for 1 hour in 10% formalin containing 0.5% cetylpyridinium chloride. The cultures were rinsed in acetic acid and stained for 1 hour in 0.5% Alcian blue solution at pH 1.0, differentiated in 3% acetic acid, and then dehydrated in ethanol and scored for chondrogenesis under the microscope. […] The number of cartilage nodules stained in the whole spot, mean number of nodules, and standard deviations were calculated for four replicate cultures per treatment. […]

gestating ICR mice = test: in vivo teratology study, single oral dose on day 11 of gestation; parameters: species or system mouse; details: female, ICR, mouse, in vivo, 17 day of gestation; for # Litters Normal / Teratogenic Effects % Cleft Palate / Teratogenic Effects % Limb Defects / Teratogenic Effects % Resorbed: po
Method: The methodology of the study is described as follows:
ICR mice (Ace Animals, Boyertown, Pa.) were used. Mature male and virgin female ICR mice were housed in environmentally controlled rooms and acclimatized to a 12 hour light/dark cycle (light cycle 6 A.M. to 6 P.M.) for 2 weeks prior to use. All animals were maintained on Purina Lab Chow and tap water ad libitum. A group of 3-4 females was caged with a single male of proven fertility for 4 hours. Presence of a vaginal plug immediately afterward was regarded as evidence of successful mating, and this day was designated as day 0 of gestation.
[…] All animals were killed by cervical dislocation under mild ether anesthesia on day 17 of gestation. Upon laparotomy, the fetuses were examined for external malformations and weighed; one-half of each litter was then fixed in 95% ethanol and processed for staining of the skeleton by the rapid, alizarin red-S dye method. These preparations were examined under a dissection microscope to screen for abnormalities in the axial and the appendicular skeleton. The other half of each litter was fixed in Bouin's solution and examined by freehand razor serial sectioning to screen for anomalies of the brain, face, and palate.
Differences in dose-related incidence of malformations and resorptions were assessed by computing percentages of affected conceptuses among total implantation sites. The groups were compared statistically by a method based on Student's t-tests of arcs in square root transformed percentages. Values at 0.05 probability level were considered significant. The median effective dose was calculated by logarithmic curve fitting of the dose-response data.

[2] = system: tissue transglutaminase (tTGASE) in HL-60 cells; test: Tissue Transglutaminase Assay (tTGASE) in HL-60 Cells; assay type: cell-based; details: FIGS. 6-9
Method: Other assays in which the retinoid like activity of the compounds used in accordance with the invention are confirmed are the HL-60 transglutaminase induction and HL-60 differentiation assay, the procedures of which are described as follows.
HL-60 cells were grown as a suspension culture in T-162 cm^2 flasks in serum-free RPMI 1640 medium supplemented with insulin (5 μg/ml), transferrin (5 μg/ml), and selenium (3 nM). The cells (1×10^6 cells/well, in 6-well dishes) were treated with serial dilutions of test compounds in the above RPMI 1640 medium which was additionally supplemented with […] dibutyryl cyclic adenosine monophosphate, a component found to be necessary for efficient differentiation of the cells. Ethanol was used in the vehicle control cultures. After 1 days of incubation at 37° C. in a 7.5% CO2 incubator, the cells were collected in a set of tubes and pelleted by centrifugation. The cells were lyzed in a buffer containing 20 mM Tris-HCl, pH 7.5, 1 mM EDTA, and 0.5% Triton X-100. An aliquot of the cell lysate was assayed for tTGASE activity in a reaction mixture containing 20 mM Tris-HCl, pH 7.5, 5 mM CaCl2, 2 mg/ml dimethylcasein, 15 mM B-mercaptoethanol and 50 μCi/ml [2,3-^3H] putrescine dihydrochloride. The reaction was carried out for 60 minutes in a 37° C. shaking water bath. The reaction was stopped by an addition of 10% trichloroacetic acid containing 0.1% putrescein. An aliquot of the stopped reaction mixture was spotted on Whatman 3 MM filter discs. The filter discs, along with the control blank filter discs, were washed twice with 5% trichloroacetic acid containing 0.1% putrescein and twice with methanol. After drying under a heat lamp, the radioactivity in the filter discs was determined by scintillation counting. An aliquot of the cell lysates was also assayed for […] by the Bradford method (Bio-Rad). After subtracting the radioactivity from the control blank filter discs, the data were calculated and expressed as pmol/min/mg protein.
As is well understood in the art, induction of tranglutaminase activity in the just-described assay is an early marker of retinoid like activity.

## C/C(=C\c1ccc(C(=O)O)cc1)c1ccc2c(c1)C(C)(C)CCC2(C)C [AGN 191183, reference compound]
[1]
  IC50: 3 ng/mL (≈ 8.61 nM)
Gestating ICR mice; 0.1 mg/kg
  litters that exhibited teratogenic effects: 100%
  # Litters Normal: 0
  Teratogenic Effects % Cleft Palate: 100%
  Teratogenic Effects % Limb Defects: 100%
  Teratogenic Effects % Resorbed: 30%
Gestating ICR mice; 0.01 mg/kg
  # Litters Normal: 2
  Teratogenic Effects % Cleft Palate: 29%
  Teratogenic Effects % Limb Defects: 20%
  Teratogenic Effects % Resorbed: 3%
Gestating ICR mice; 1 mg/kg
  # Litters Normal: 0
  Teratogenic Effects % Resorbed: 100%
Gestating ICR mice; 10 mg/kg
  # Litters Normal: 0
  Teratogenic Effects % Resorbed: 100%
[2]
  induction of transglutaminase activity: inactive
